pIC50: −log10 of the molar value. Counter-ions that a name gives are not always drawn.
Each compound was assayed against T1, FLAG-tagged full length PHD2 (Homo sapiens, UniProt Q9GZT9) (assay: PHD2 inhibition assay (time resolved fluorescence, HIF-1α peptide hydroxylation, VHL detection)). Details: 0.2 μM 2-oxoglutarate, 0.5 μM HIF-1α peptide, 2 hr at room temperature; read-out: PHD2 Activity (PHD2 binding activity expressed as IC50).
T1 construct: FLAG-tagged full length PHD2; FLAG; made in house; host or cells: baculovirus-infected Sf9 cells
T1 sequence (Q9GZT9 whole entry): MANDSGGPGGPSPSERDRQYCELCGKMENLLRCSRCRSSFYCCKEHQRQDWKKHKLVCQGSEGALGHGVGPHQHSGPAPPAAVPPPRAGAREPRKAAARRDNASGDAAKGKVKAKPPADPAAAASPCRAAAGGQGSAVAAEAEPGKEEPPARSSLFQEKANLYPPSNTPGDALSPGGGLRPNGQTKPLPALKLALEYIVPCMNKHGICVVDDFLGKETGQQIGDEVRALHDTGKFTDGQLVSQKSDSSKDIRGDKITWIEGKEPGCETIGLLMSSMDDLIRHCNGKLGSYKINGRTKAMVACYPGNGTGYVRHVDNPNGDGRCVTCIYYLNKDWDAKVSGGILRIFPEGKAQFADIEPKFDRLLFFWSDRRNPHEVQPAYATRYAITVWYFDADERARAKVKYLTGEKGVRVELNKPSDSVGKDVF
Assay type: biochemical
Protocol: To each well of a 96-well plate was added 1 μL of test compound in DMSO and 20 μl of assay buffer (50 mM Tris pH 7.4/0.01% Tween-20/0.1 mg/ml bovine serum albumin/10 μM ferrous sulfate/1 mM sodium ascorbate/20 μg/ml catalase) containing 0.15 μg/ml FLAG-tagged full length PHD2 expressed in and purified from baculovirus-infected Sf9 cells. After a 30 min preincubation at room temperature, the enzymatic reactions were initiated by the addition of 4 μL of substrates (final concentrations of 0.2 μM 2-oxoglutarate and 0.5 μM HIF-1α peptide biotinyl-[…]).

Row | SMILES | pIC50
1 | O=C(O)CNC(=O)c1c(O)c2c(n(Cc3ccc(-c4ccc(OC(F)(F)F)cc4)cc3)c1=O)CSC2 [Example 36, N-[(4-hydroxy-2-oxo-1-{[4′-(trifluoromethoxy)biphenyl-4-yl]methyl}-1,2,5,7-tetrahydrothieno[3,4-b]pyridin-3-yl)carbonyl]glycine] | ≥ 8.00
2 | O=C(O)CNC(=O)c1c(O)c2c(n(Cc3cccc(Cl)c3)c1=O)CSC2 [Example 14, N-{[1-(3-chlorobenzyl)-4-hydroxy-2-oxo-1,2,5,7-tetrahydrothieno[3,4-b]pyridin-3-yl]carbonyl}glycine] | ≥ 8.00
3 | CC(C)c1ccc(Cn2c3c(c(O)c(C(=O)NCC(=O)O)c2=O)CSC3)cc1 [Example 8, N-{[4-hydroxy-1-(4-isopropylbenzyl)-2-oxo-1,2,5,7-tetrahydrothieno[3,4-b]pyridin-3-yl]carbonyl]glycine] | ≥ 8.00
4 | O=C(O)CNC(=O)c1c(O)c2c(n(Cc3ccc(-c4ccccc4)cc3)c1=O)CSC2 [Example 29, N-{[1-(biphenyl-4-ylmethyl)-4-hydroxy-2-oxo-1,2,5,7-tetrahydrothieno[3,4-b]pyridin-3-yl]carbonyl}glycine] | ≥ 8.00
5 | CS(=O)(=O)c1ccc(Cn2c3c(c(O)c(C(=O)NCC(=O)O)c2=O)CSC3)cc1 [Example 6, N-({4-hydroxy-1-[4-(methylsulfonyl)benzyl]-2-oxo-1,2,5,7-tetrahydrothieno[3,4-d]pyridin-3-yl]carbonyl)glycine] | ≥ 8.00
6 | O=C(O)CNC(=O)c1c(O)c2c(n(Cc3cc(F)cc(C(F)(F)F)c3)c1=O)CSC2 [Example 13, N-({l-[3-fluoro-5-(trifluoromethyl)benzyl]-4-hydroxy-2-oxo-1,2,5,7-tetrahydrothieno[3,4-b]pyridin-3-yl]carbonyl)glycine] | 7.00 to 8.00
7 | O=C(O)CNC(=O)c1c(O)c2c(n(Cc3ccc(-c4cccs4)cc3)c1=O)CSC2 [Example 35, N-({4-hydroxy-2-oxo-1-[4-(2-thienyl)benzyl]-1,2,5,7-tetrahydrothieno[3,4-b]pyridin-3-yl}carbonyl)glycine] | ≥ 8.00
8 | O=C(O)CNC(=O)c1c(O)c2c(n(Cc3ccc(Cl)c(C(F)(F)F)c3)c1=O)CSC2 [Example 18, N-({1-[4-chloro-3-(trifluoromethyl)benzyl]-4-hydroxy-2-oxo-1,2,5,7-tetrahydrothieno[3,4-b]pyridin-3-yl}carbonyl)glycine] | ≥ 8.00

Second part, the compound after the results:

Row | pIC50 | SMILES
9 | ≥ 8.00 | O=C(O)CNC(=O)c1c(O)c2c(n(Cc3cnc(-c4cc(F)ccc4F)cn3)c1=O)CSC2 [Example 56, N-[(l-{[5-(2,5-difluorophenyl)pyrazin-2-yl]methyl}-4-hydroxy-2-oxo-1,2,5,7-tetrahydrothieno[3,4-b]pyridin-3-yl)carbonyl]glycine]
10 | ≥ 8.00 | O=C(O)CNC(=O)c1c(O)c2c(n(Cc3ccc(-c4cc(F)ccc4F)nc3)c1=O)CSC2 [Example 51, N-[(l-{[6-(2,5-difluorophenyl)pyridinium-3-yl]methyl}-4-hydroxy-2-oxo-1,2,5,7-tetrahydrothieno[3,4-6]pyridin-3-yl)carbonyl]glycine trifluoroacetate]
11 | ≥ 8.00 | O=C(O)CNC(=O)c1c(O)c2c(n(Cc3ccc(-c4cccc5ncccc45)cc3)c1=O)CSC2 [Example 52, N-{[4-hydroxy-2-oxo-1-(4-quinolinium-5-ylbenzyl)-1,2,5,7-tetrahydrothieno[3,4-b]pyridin-3-yl]carbonyl}glycine chloride]
12 | ≥ 8.00 | O=C(O)CNC(=O)c1c(O)c2c(n(Cc3cnc(-c4ccccc4Cl)cn3)c1=O)CSC2 [Example 53, N-[(1-{[-5-(2-chlorophenyl)pyrazin-2-yl]methyl}-4-hydroxy-2-oxo-1,2,5,7-tetrahydrothieno[3,4-b]pyridin-3-yl)carbonyl]glycine]
13 | ≥ 8.00 | CC(C)c1ccc(Cn2c3c(c(O)c(C(=O)NCC(=O)O)c2=O)CS(=O)(=O)C3)cc1 [Example 61, N-{[4-hydroxy-1-(4-isopropylbenzyl)-6,6-dioxido-2-oxo-1,2,5,7-tetrahydrothieno[3,4-b]pyridin-3-yl]carbonyl}glycine]

— patent US8445680B2, “Tetrahydrothieno pyridines” (Merck Sharp & Dohme Corp., priority 2008, dated 2013)
